# Measured values from ChEMBL document CHEMBL5046315, “CRCM5484: A BET-BDII Selective Compound with Differential Anti-leukemic Drug Modulation” (J Med Chem, 2022).
# The source made the active and inactive calls. The calls are words filed in the database; no cut-off is given here.
# How the values were obtained:
# [1] = system: MOLM-14; test: Potentiation of imatinib-induced antileukemic activity against human MOLM-14 cells at 4.3 uM in presence of bone-marrow derived stromal cell-conditioned medium; type: functional, cell-based
# [2] = system: U-937; test: Potentiation of dasatinib-induced antileukemic activity against human U-937 cells at 4.3 uM in presence of bone-marrow derived stromal cell-conditioned medium; type: functional, cell-based
# [3] = system: U-937; test: Potentiation of venetoclax-induced antileukemic activity against human U-937 cells at 4.3 uM in presence of bone-marrow derived stromal cell-conditioned medium; type: functional, cell-based
# [4] = system: U-937; test: Potentiation of gileritinib-induced antileukemic activity against human U-937 cells at 4.3 uM in presence of bone-marrow derived stromal cell-conditioned medium; type: functional, cell-based
# [5] = system: CCRF-CEM; test: Potentiation of EPZ5676-induced antileukemic activity against human CCRF-CEM cells at 4.3 uM in presence of bone-marrow derived stromal cell-conditioned medium; type: functional, cell-based
# [6] = system: U-937; test: Potentiation of topotecan-induced antileukemic activity against human U-937 cells at 4.3 uM in presence of bone-marrow derived stromal cell-conditioned medium; type: functional, cell-based
# [7] = system: U-937; test: Potentiation of seliciclib-induced antileukemic activity against human U-937 cells at 4.3 uM in presence of bone-marrow derived stromal cell-conditioned medium; type: functional, cell-based
# [8] = system: U-937; test: Potentiation of vorinostat-induced antileukemic activity against human U-937 cells at 4.3 uM in presence of bone-marrow derived stromal cell-conditioned medium; type: functional, cell-based
# [9] = system: CCRF-CEM; test: Potentiation of nelarabine-induced antileukemic activity against human CCRF-CEM cells at 4.3 uM in presence of bone-marrow derived stromal cell-conditioned medium; type: functional, cell-based
# [10] = system: MOLM-14; test: Potentiation of idasanutlin-induced antileukemic activity against human MOLM-14 cells at 4.3 uM in presence of bone-marrow derived stromal cell-conditioned medium; type: functional, cell-based
# [11] = system: MOLM-14; test: Potentiation of selinexor-induced antileukemic activity against human MOLM-14 cells at 4.3 uM in presence of bone-marrow derived stromal cell-conditioned medium; type: functional, cell-based
# [12] = system: CCRF-CEM; test: Potentiation of entinostat-induced antileukemic activity against human CCRF-CEM cells at 4.3 uM in presence of bone-marrow derived stromal cell-conditioned medium; type: functional, cell-based
# [13] = system: CCRF-CEM; test: Potentiation of cladribine-induced antileukemic activity against human CCRF-CEM cells at 4.3 uM in presence of bone-marrow derived stromal cell-conditioned medium; type: functional, cell-based
# [14] = system: U-937; test: Potentiation of birinapant-induced antileukemic activity against human U-937 cells at 4.3 uM in presence of bone-marrow derived stromal cell-conditioned medium; type: functional, cell-based
# [15] = system: CCRF-CEM; test: Potentiation of metformin -induced antileukemic activity against human CCRF-CEM cells at 4.3 uM in presence of bone-marrow derived stromal cell-conditioned medium; type: functional, cell-based
# [16] = system: CCRF-CEM; test: Potentiation of tipifarnib-induced antileukemic activity against human CCRF-CEM cells at 4.3 uM in presence of bone-marrow derived stromal cell-conditioned medium; type: functional, cell-based
# [17] = system: CCRF-CEM; test: Potentiation of AG-221-induced antileukemic activity against human CCRF-CEM cells at 4.3 uM in presence of bone-marrow derived stromal cell-conditioned medium; type: functional, cell-based
# [18] = system: CCRF-CEM; test: Potentiation of sorafenib-induced antileukemic activity against human CCRF-CEM cells at 4.3 uM in presence of bone-marrow derived stromal cell-conditioned medium; type: functional, cell-based
# [19] = system: MOLM-14; test: Potentiation of vincristine-induced antileukemic activity against human MOLM-14 cells at 4.3 uM in presence of bone-marrow derived stromal cell-conditioned medium; type: functional, cell-based
# [20] = system: U-937; test: Potentiation of bleomycine-induced antileukemic activity against human U-937 cells at 4.3 uM in presence of bone-marrow derived stromal cell-conditioned medium; type: functional, cell-based
# [21] = system: U-937; test: Potentiation of idelalisib-induced antileukemic activity against human U-937 cells at 4.3 uM in presence of bone-marrow derived stromal cell-conditioned medium; type: functional, cell-based
# [22] = system: MOLM-14; test: Potentiation of dasatinib-induced antileukemic activity against human MOLM-14 cells at 4.3 uM in presence of bone-marrow derived stromal cell-conditioned medium; type: functional, cell-based
# [23] = system: U-937; test: Potentiation of AC-4-130-induced antileukemic activity against human U-937 cells at 4.3 uM in presence of bone-marrow derived stromal cell-conditioned medium; type: functional, cell-based
# [24] = system: CCRF-CEM; test: Potentiation of volasertib-induced antileukemic activity against human CCRF-CEM cells at 4.3 uM in presence of bone-marrow derived stromal cell-conditioned medium; type: functional, cell-based
# [25] = system: U-937; test: Potentiation of SGI-1027-induced antileukemic activity against human U-937 cells at 4.3 uM in presence of bone-marrow derived stromal cell-conditioned medium; type: functional, cell-based
# [26] = system: U-937; test: Potentiation of AraC-induced antileukemic activity against human U-937 cells at 4.3 uM in presence of bone-marrow derived stromal cell-conditioned medium; type: functional, cell-based
# [27] = system: CCRF-CEM; test: Potentiation of AGI-5198-induced antileukemic activity against human CCRF-CEM cells at 4.3 uM in presence of bone-marrow derived stromal cell-conditioned medium; type: functional, cell-based
# [28] = system: CCRF-CEM; test: Potentiation of SGI-110-induced antileukemic activity against human CCRF-CEM cells at 4.3 uM in presence of bone-marrow derived stromal cell-conditioned medium; type: functional, cell-based
# [29] = system: CCRF-CEM; test: Potentiation of topotecan-induced antileukemic activity against human CCRF-CEM cells at 4.3 uM in presence of bone-marrow derived stromal cell-conditioned medium; type: functional, cell-based
# [30] = system: U-937; test: Potentiation of imatinib-induced antileukemic activity against human U-937 cells at 4.3 uM in presence of bone-marrow derived stromal cell-conditioned medium; type: functional, cell-based
# [31] = system: CCRF-CEM; test: Potentiation of cyclopamine-induced antileukemic activity against human CCRF-CEM cells at 4.3 uM in presence of bone-marrow derived stromal cell-conditioned medium; type: functional, cell-based
# [32] = system: MOLM-14; test: Potentiation of GSK126-induced antileukemic activity against human MOLM-14 cells at 4.3 uM in presence of bone-marrow derived stromal cell-conditioned medium; type: functional, cell-based
# [33] = molecular target: Chromatin remodeling regulator CECR2 (Homo sapiens) (UniProt Q9BXF3); test: Binding affinity to partial length human CECR2 (P423 to D543 residues) expressed in bacterial system at 1 uM by BROMOscan method relative to control
# [34] = system: CCRF-CEM; test: Potentiation of idarubicin-induced antileukemic activity against human CCRF-CEM cells at 4.3 uM in presence of bone-marrow derived stromal cell-conditioned medium; type: functional, cell-based
# [35] = system: U-937; test: Potentiation of MK2206-induced antileukemic activity against human U-937 cells at 4.3 uM in presence of bone-marrow derived stromal cell-conditioned medium; type: functional, cell-based
# [36] = system: CCRF-CEM; test: Potentiation of rigosertib-induced antileukemic activity against human CCRF-CEM cells at 4.3 uM in presence of bone-marrow derived stromal cell-conditioned medium; type: functional, cell-based
# [37] = system: MOLM-14; test: Potentiation of entinostat-induced antileukemic activity against human MOLM-14 cells at 4.3 uM in presence of bone-marrow derived stromal cell-conditioned medium; type: functional, cell-based
# [38] = system: U-937; test: Potentiation of gefitinib-induced antileukemic activity against human U-937 cells at 4.3 uM in presence of bone-marrow derived stromal cell-conditioned medium; type: functional, cell-based
# [39] = system: MOLM-14; test: Potentiation of tretinoin-induced antileukemic activity against human MOLM-14 cells at 4.3 uM in presence of bone-marrow derived stromal cell-conditioned medium; type: functional, cell-based
# [40] = system: CCRF-CEM; test: Potentiation of quizartinib-induced antileukemic activity against human CCRF-CEM cells at 4.3 uM in presence of bone-marrow derived stromal cell-conditioned medium; type: functional, cell-based
# [41] = system: U-937; test: Potentiation of rigosertib-induced antileukemic activity against human U-937 cells at 4.3 uM in presence of bone-marrow derived stromal cell-conditioned medium; type: functional, cell-based
# Chain of Chromatin remodeling regulator CECR2 (Homo sapiens) (Q9BXF3 whole entry, looked up, the tested form may be a part): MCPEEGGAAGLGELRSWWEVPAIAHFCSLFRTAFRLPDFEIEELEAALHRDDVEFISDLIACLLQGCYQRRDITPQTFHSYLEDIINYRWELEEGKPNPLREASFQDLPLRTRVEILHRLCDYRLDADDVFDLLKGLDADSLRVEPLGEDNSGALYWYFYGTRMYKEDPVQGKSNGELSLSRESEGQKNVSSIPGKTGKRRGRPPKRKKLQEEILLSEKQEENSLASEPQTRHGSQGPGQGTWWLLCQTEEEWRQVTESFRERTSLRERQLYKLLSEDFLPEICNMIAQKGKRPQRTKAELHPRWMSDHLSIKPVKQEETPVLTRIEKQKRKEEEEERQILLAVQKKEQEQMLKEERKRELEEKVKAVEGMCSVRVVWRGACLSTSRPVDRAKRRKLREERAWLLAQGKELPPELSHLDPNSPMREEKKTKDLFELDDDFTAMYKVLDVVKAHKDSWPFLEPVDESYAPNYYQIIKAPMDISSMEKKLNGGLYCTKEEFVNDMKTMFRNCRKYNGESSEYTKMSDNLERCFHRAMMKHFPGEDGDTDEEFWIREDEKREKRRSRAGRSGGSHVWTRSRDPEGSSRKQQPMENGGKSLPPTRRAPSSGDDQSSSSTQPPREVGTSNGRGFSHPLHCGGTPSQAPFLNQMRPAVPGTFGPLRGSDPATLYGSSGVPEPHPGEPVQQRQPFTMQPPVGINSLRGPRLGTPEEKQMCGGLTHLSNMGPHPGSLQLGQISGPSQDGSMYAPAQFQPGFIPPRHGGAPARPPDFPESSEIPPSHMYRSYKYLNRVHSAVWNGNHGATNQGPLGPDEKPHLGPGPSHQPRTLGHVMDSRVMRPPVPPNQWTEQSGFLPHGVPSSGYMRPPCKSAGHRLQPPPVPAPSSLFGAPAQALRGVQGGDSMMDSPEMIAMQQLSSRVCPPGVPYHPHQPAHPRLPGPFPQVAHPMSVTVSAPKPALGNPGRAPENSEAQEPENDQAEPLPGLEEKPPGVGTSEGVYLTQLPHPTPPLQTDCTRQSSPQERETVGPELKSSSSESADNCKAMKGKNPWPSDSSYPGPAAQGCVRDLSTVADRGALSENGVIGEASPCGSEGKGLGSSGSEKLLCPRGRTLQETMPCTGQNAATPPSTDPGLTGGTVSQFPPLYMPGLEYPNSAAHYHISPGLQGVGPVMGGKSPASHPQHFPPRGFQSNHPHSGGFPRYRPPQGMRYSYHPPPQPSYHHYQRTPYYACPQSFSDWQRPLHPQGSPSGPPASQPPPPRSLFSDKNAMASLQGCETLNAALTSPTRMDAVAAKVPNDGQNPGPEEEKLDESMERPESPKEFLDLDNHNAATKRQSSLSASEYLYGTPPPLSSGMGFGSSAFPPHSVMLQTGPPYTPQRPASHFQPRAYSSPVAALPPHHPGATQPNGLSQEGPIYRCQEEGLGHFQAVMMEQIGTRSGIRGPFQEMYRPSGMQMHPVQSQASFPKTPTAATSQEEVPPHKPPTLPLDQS
smiles,measurement,setting,value
CC(=O)N1CCc2c(sc3nc(SCC(=O)Nc4cccnc4C)n(Cc4ccco4)c(=O)c23)C1,Activity,[1],inactive
same,Activity,[2],inactive
same,Activity,[3],inactive
same,Activity,[4],inactive
same,Activity,[5],inactive
same,Activity,[6],inactive
same,Activity,[7],inactive
same,Activity,[8],inactive
same,Activity,[9],inactive
same,Activity,[10],inactive
same,Activity,[11],inactive
same,Activity,[12],inactive
same,Activity,[13],inactive
same,Activity,[14],inactive
same,Activity,[15],inactive
same,Activity,[16],inactive
same,Activity,[17],inactive
same,Activity,[18],inactive
same,Activity,[19],inactive
same,Activity,[20],inactive
same,Activity,[21],inactive
same,Activity,[22],inactive
same,Activity,[23],inactive
same,Activity,[24],inactive
same,Activity,[25],inactive
same,Activity,[26],inactive
same,Activity,[27],inactive
same,Activity,[28],inactive
same,Activity,[29],inactive
same,Activity,[30],inactive
same,Activity,[31],inactive
same,Activity,[32],inactive
same,Activity,[33],54%
same,Activity,[34],inactive
same,Activity,[35],inactive
same,Activity,[36],inactive
same,Activity,[37],inactive
same,Activity,[38],inactive
same,Activity,[39],inactive
same,Activity,[40],inactive
same,Activity,[41],inactive
